Measured values from patent publication US10961401B2, “UV cured benzophenone terminated quaternary ammonium antimicrobials for surfaces” (NANO SAFE COATINGS INCORPORATED, priority 2012, dated 2021).
Structures can show the parent of a compound that is named as a salt.

How the values were obtained:
Pseudomonas spp. CTO7 = assay: Flow-cell antimicrobial test: bacterial cell count in effluent of coated silicone tubing; format: cell-based; settings: 100 μL effluent plated on 10% TSA
Protocol: Preparation of Self Assembled Monolayers on Silicone Tubing
Silicone tubing was rinsed with IPA and H2O using a peristaltic pump then dried by running air through the tubes. A 0.05% (w/v) solution of 8a in H2O and a 0.5% (w/v) solution of 4c in H2O/IPA were prepared. Tubes were coated using the peristaltic pump and filled tubes were irradiated using a UV fumehood for 25 minutes. Coated tubes were then rinsed with H2O to remove any unbound materials.
1.5% (w/v) solutions of 8a and 4c in dichloromethane (DCM) were prepared. These solutions were pumped through clean silicone tubing using a syringe and irradiated using a UV quartz lamp for 30 minutes.
Antimicrobial Test Method
The antimicrobial efficacy was determined using a flow-cell method as described in Markison C and Swan J, “The Effect of Humidity on the Survival of MRSA on Hard Surfaces”, Indoor and Built Environment, 2006, 15(1), 85-91. A 1% tryptic soy broth and an inoculum of 10×10^4 cfu/mL of Pseudomonas spp. CTO7 were pumped through silicone tubing coated with 8a, 4c and a control tube for 30 hours. The tubes were then left stagnant for a period of 2 hours after which only the 1% TSB was allowed to flow through the tubes for 48 hours. During these 48 hours effluent samples of 100 μL were collected periodically and plated on 10% trypticase soy agar (TSA) in a dilution series up to 10×10^4. Sampling periods were time zero, 3 hours, 6 hours, 24 hours, 27 hours, 30 hours, and 48 hours. The number of colonies grown on each plate was counted in order to determine antimicrobial activity.

[1] = time 0 hr, sample dilution 10^0
[2] = time 0 hr, sample dilution 10^−1
[3] = time 0 hr, sample dilution 10^−2
[4] = time 0 hr, sample dilution 10^−3
[5] = time 0 hr, sample dilution 10^−4
[6] = time 3 hr, sample dilution 10^0
[7] = time 3 hr, sample dilution 10^−1
[8] = time 3 hr, sample dilution 10^−2
[9] = time 3 hr, sample dilution 10^−3
[10] = time 3 hr, sample dilution 10^−4
[11] = time 6 hr, sample dilution 10^0
[12] = time 6 hr, sample dilution 10^−1
[13] = time 6 hr, sample dilution 10^−2
[14] = time 6 hr, sample dilution 10^−3
[15] = time 6 hr, sample dilution 10^−4
[16] = time 24 hr, sample dilution 10^0
[17] = time 24 hr, sample dilution 10^−1
[18] = time 24 hr, sample dilution 10^−2
[19] = time 24 hr, sample dilution 10^−3
[20] = time 24 hr, sample dilution 10^−4
[21] = time 27 hr, sample dilution 10^0
[22] = time 27 hr, sample dilution 10^−1
[23] = time 27 hr, sample dilution 10^−2
[24] = time 27 hr, sample dilution 10^−3
[25] = time 27 hr, sample dilution 10^−4
[26] = time 30 hr, sample dilution 10^0
[27] = time 30 hr, sample dilution 10^−1
[28] = time 30 hr, sample dilution 10^−2
[29] = time 30 hr, sample dilution 10^−3
[30] = time 30 hr, sample dilution 10^−4
[31] = time 48 hr, sample dilution 10^0
[32] = time 48 hr, sample dilution 10^−1
[33] = time 48 hr, sample dilution 10^−2
[34] = time 48 hr, sample dilution 10^−3
[35] = time 48 hr, sample dilution 10^−4

Compound	Pseudomonas bacterial cell count on coated silicone tubing (Pseudomonas spp. CTO7; [1])	Pseudomonas bacterial cell count on coated silicone tubing (Pseudomonas spp. CTO7; [2])	Pseudomonas bacterial cell count on coated silicone tubing (Pseudomonas spp. CTO7; [3])	Pseudomonas bacterial cell count on coated silicone tubing (Pseudomonas spp. CTO7; [4])	Pseudomonas bacterial cell count on coated silicone tubing (Pseudomonas spp. CTO7; [5])	Pseudomonas bacterial cell count on coated silicone tubing (Pseudomonas spp. CTO7; [6])	Pseudomonas bacterial cell count on coated silicone tubing (Pseudomonas spp. CTO7; [7])	Pseudomonas bacterial cell count on coated silicone tubing (Pseudomonas spp. CTO7; [8])	Pseudomonas bacterial cell count on coated silicone tubing (Pseudomonas spp. CTO7; [9])	Pseudomonas bacterial cell count on coated silicone tubing (Pseudomonas spp. CTO7; [10])	Pseudomonas bacterial cell count on coated silicone tubing (Pseudomonas spp. CTO7; [11])	Pseudomonas bacterial cell count on coated silicone tubing (Pseudomonas spp. CTO7; [12])	Pseudomonas bacterial cell count on coated silicone tubing (Pseudomonas spp. CTO7; [13])	Pseudomonas bacterial cell count on coated silicone tubing (Pseudomonas spp. CTO7; [14])	Pseudomonas bacterial cell count on coated silicone tubing (Pseudomonas spp. CTO7; [15])	Pseudomonas bacterial cell count on coated silicone tubing (Pseudomonas spp. CTO7; [16])	Pseudomonas bacterial cell count on coated silicone tubing (Pseudomonas spp. CTO7; [17])	Pseudomonas bacterial cell count on coated silicone tubing (Pseudomonas spp. CTO7; [18])	Pseudomonas bacterial cell count on coated silicone tubing (Pseudomonas spp. CTO7; [19])	Pseudomonas bacterial cell count on coated silicone tubing (Pseudomonas spp. CTO7; [20])	also measured
CN(C)c1cccc2c(S(=O)(=O)NCCC[N+](C)(C)CCCCOc3ccc(C(=O)c4ccccc4)cc3)cccc12 (as salt: bromide) [Compound 8a, 4-(4-benzoylphenoxy)-N-(3-(5-(dimethylamino)naphthalene-1-sulfonamido)propyl)-N,N-dimethylbutan-1-ammonium bromide]	–	–	–	–	–	–	–	–	–	–	–	–	–	–	–	–	–	–	–	–	melting point: 96 to 104 °C
CCCCCCCCCCCCCCCCCC[N+](C)(C)CCCOc1ccc(C(=O)c2ccccc2)cc1 [Compound 4c]	300 cfu/mL	300 cfu/mL	48 cfu/mL	8 cfu/mL	0 cfu/mL	20 cfu/mL	0 cfu/mL	0 cfu/mL	0 cfu/mL	0 cfu/mL	160 cfu/mL	15 cfu/mL	0 cfu/mL	0 cfu/mL	0 cfu/mL	300 cfu/mL	200 cfu/mL	21 cfu/mL	4 cfu/mL	0 cfu/mL	Pseudomonas bacterial cell count on coated silicone tubing (Pseudomonas spp. CTO7; [21]): 300 cfu/mL; Pseudomonas bacterial cell count on coated silicone tubing (Pseudomonas spp. CTO7; [22]): 110 cfu/mL; Pseudomonas bacterial cell count on coated silicone tubing (Pseudomonas spp. CTO7; [23]): 11 cfu/mL; Pseudomonas bacterial cell count on coated silicone tubing (Pseudomonas spp. CTO7; [24]): 0 cfu/mL; Pseudomonas bacterial cell count on coated silicone tubing (Pseudomonas spp. CTO7; [25]): 0 cfu/mL; Pseudomonas bacterial cell count on coated silicone tubing (Pseudomonas spp. CTO7; [26]): 300 cfu/mL; Pseudomonas bacterial cell count on coated silicone tubing (Pseudomonas spp. CTO7; [27]): 70 cfu/mL; Pseudomonas bacterial cell count on coated silicone tubing (Pseudomonas spp. CTO7; [28]): 5 cfu/mL; Pseudomonas bacterial cell count on coated silicone tubing (Pseudomonas spp. CTO7; [29]): 0 cfu/mL; Pseudomonas bacterial cell count on coated silicone tubing (Pseudomonas spp. CTO7; [30]): 0 cfu/mL; Pseudomonas bacterial cell count on coated silicone tubing (Pseudomonas spp. CTO7; [31]): 289 cfu/mL; Pseudomonas bacterial cell count on coated silicone tubing (Pseudomonas spp. CTO7; [32]): 31 cfu/mL; Pseudomonas bacterial cell count on coated silicone tubing (Pseudomonas spp. CTO7; [33]): 0 cfu/mL; Pseudomonas bacterial cell count on coated silicone tubing (Pseudomonas spp. CTO7; [34]): 0 cfu/mL; Pseudomonas bacterial cell count on coated silicone tubing (Pseudomonas spp. CTO7; [35]): 0 cfu/mL
CN(C)c1cccc2c(S(=O)(=O)NCCC[N+](C)(C)CCCCOc3ccc(C(=O)c4ccccc4)cc3)cccc12 [Compound 8a, 4-(4-benzoylphenoxy)-N-(3-(5-(dimethylamino)naphthalene-1-sulfonamido)propyl)-N,N-dimethylbutan-1-ammonium bromide]	0 cfu/mL	0 cfu/mL	0 cfu/mL	0 cfu/mL	0 cfu/mL	15 cfu/mL	0 cfu/mL	0 cfu/mL	0 cfu/mL	0 cfu/mL	6 cfu/mL	0 cfu/mL	0 cfu/mL	0 cfu/mL	0 cfu/mL	0 cfu/mL	0 cfu/mL	0 cfu/mL	0 cfu/mL	0 cfu/mL	Pseudomonas bacterial cell count on coated silicone tubing (Pseudomonas spp. CTO7; [21]): 30 cfu/mL; Pseudomonas bacterial cell count on coated silicone tubing (Pseudomonas spp. CTO7; [22]): 0 cfu/mL; Pseudomonas bacterial cell count on coated silicone tubing (Pseudomonas spp. CTO7; [23]): 0 cfu/mL; Pseudomonas bacterial cell count on coated silicone tubing (Pseudomonas spp. CTO7; [24]): 0 cfu/mL; Pseudomonas bacterial cell count on coated silicone tubing (Pseudomonas spp. CTO7; [25]): 0 cfu/mL; Pseudomonas bacterial cell count on coated silicone tubing (Pseudomonas spp. CTO7; [26]): 18 cfu/mL; Pseudomonas bacterial cell count on coated silicone tubing (Pseudomonas spp. CTO7; [27]): 4 cfu/mL; Pseudomonas bacterial cell count on coated silicone tubing (Pseudomonas spp. CTO7; [28]): 0 cfu/mL; Pseudomonas bacterial cell count on coated silicone tubing (Pseudomonas spp. CTO7; [29]): 0 cfu/mL; Pseudomonas bacterial cell count on coated silicone tubing (Pseudomonas spp. CTO7; [30]): 0 cfu/mL; Pseudomonas bacterial cell count on coated silicone tubing (Pseudomonas spp. CTO7; [31]): 27 cfu/mL; Pseudomonas bacterial cell count on coated silicone tubing (Pseudomonas spp. CTO7; [32]): 1 cfu/mL; Pseudomonas bacterial cell count on coated silicone tubing (Pseudomonas spp. CTO7; [33]): 0 cfu/mL; Pseudomonas bacterial cell count on coated silicone tubing (Pseudomonas spp. CTO7; [34]): 0 cfu/mL; Pseudomonas bacterial cell count on coated silicone tubing (Pseudomonas spp. CTO7; [35]): 0 cfu/mL
